{"source": "patent US20160303000A1", "about": "“COMPOSITION AND METHOD FOR REDUCING BACTERIAL BIOFILM FORMATION IN CONNECTION WITH A DENTAL PROCEDURE” (Loma Linda University, priority 2011, published 2016)", "system": "mixed culture consortium of three root canal isolates, E. faecalis, L. salivarius and S. gordonii", "test": "biofilm formation in mini-flow chamber system, CSLM with LIVE/DEAD staining", "format": "cell-based", "protocol": "First, a microbial consortium was created using bacterial strains, E. faecalis, L. salivarius and S. gordonii which were isolated from endodontic therapy associated with persistent infections. The strains were stored at −70° C. using skim milk powder (Oxoid, Cambridge, United Kingdom), diluted in double distilled water and were recovered on blood agar in an atmosphere of 5% CO2 in hydrogen at 37° C. for 24 hours. Then, four to five colonies of each strain were transferred into liquid growth medium (Todd-Hewitt broth) and incubated in an atmosphere of 5% CO2 in hydrogen at 37° C. The optical densities (OD600) of the liquid cultures were monitored until exponential growth was reached, that is, until OD600 values of 0.6±0.1. The cells were harvested by centrifugation (3000 g, five minutes at 4° C.), washed in 10 mM PBS and re-suspended in Todd-Hewitt broth to an approximate cell concentration of 1×108 ml^−1. […]\nThen, the mini-flow chamber biofilms were inspected. […] CSLM images were analyzed in 2 and 3-D by using the software bioimage_L. […]\nEach experiment was repeated three times and the statistical analysis was performed by two-way analysis of variance (ANOVA). Two-way ANOVA detected any significant variation among biofilms formed on surfaces pre-conditioned with the composition according to the present invention, NaOCl and the uncoated controls. […]"}
{"smiles": "[Na+].[O-]Cl", "note": "[NaOCl]", "values": [{"measurement": "viability of biofilm cells (LIVE/DEAD staining)", "setting": "all tests, proportions of green-viable cells", "value": "not compromised"}, {"measurement": "biovolume of biofilms relative to composition-preconditioned surfaces and uncoated controls", "setting": "preconditioned surfaces", "value": "intermediate"}]}
